From patent US20170281509A1, “COMPOSITIONS AND METHODS FOR MITIGATING SKIN IRRITATION” (GOJO INDUSTRIES, INC., priority 2014, published 2017)

System: IL-8 secretion by human dermal keratinocytes
Assay: IL-8 secretion (ELISA) in human dermal keratinocytes co-treated with irritant surfactant mixture
Type: cell-based
Settings: FIG. 1
Source text: Interleukin 8 (IL-8) is a chemokine and proinflammatory cytokine produced by macrophages and other cell types such as epithelial cells. It is secreted from keratinocytes in skin in response to inflammatory stimuli. IL-8 is secreted and is an important mediator of the immune reaction in the innate immune system response. IL-8 overexpressed is a biomarker of skin irritation. Thus, the following method may be employed to measure the irritancy potential of an ingredient or combination of ingredients.
For Control A, human dermal keratinocytes were left untreated. No irritation is expected, and therefore Control A provided a baseline. For Control B, IL-8 was induced in human dermal keratinocytes by applying a surfactant mixture that is a combination of sodium laureth sulfate and polyquaternium-10. For all other samples, the human dermal keratinocytes were co-treated with the surfactant mixture and a composition containing the ingredient of interest. Decreased IL-8 expression reflects the ingredient's anti-irritation activity. In other words, decreased IL-8 expression reflects reduced irritancy potential.
In order to carry out the test method, an assay kit was employed that was obtained from R&D Systems: Human CXCL8/IL-8 Duoset ELISA Kit.
The following steps were followed: 1. […] Using a colorimeter, absorbance of each well in the plates was measured at 450 nanometers (nm) within 30 minutes. […]

For acetyl hexapeptide-51 amide, the “effect on IL-8 secretion compared to Control B (in words)” value was “reduced IL-8 secretion”.
